# Source: patent publication US9145426B2, “Pyrrolidine-fused thiadiazine dioxide compounds as BACE inhibitors, compositions, and their use” (Merck Sharp & Dohme Corp., priority 2011, dated 2015)
# pKi: −log10 of the molar value.
# How the values were obtained:
# [1] = target: soluble human BACE1 catalytic domain (Homo sapiens (Human), UniProt P56817); test: BACE1 HTRF FRET Assay; assay type: biochemical; settings: calculated from IC50 using the Cheng-Prusoff equation; read-out: BACE-1 Ki
# Excerpt: Na^+-Acetate pH 5.0; 1% Brij-35; Glycerol; Dimethyl Sulfoxide (DMSO); Recombinant human soluble BACE1 catalytic domain (>95% pure); APP Swedish mutant peptide substrate (QSY7-APP^swe-Eu): QSY7-[…]-Europium-amide.
# A homogeneous time-resolved FRET assay was used to determine IC50 values for inhibitors of the soluble human BACE1 catalytic domain. This assay monitored the increase of 620 nm fluorescence that resulted from BACE1 cleavage of an APPswedish APP^swe mutant peptide FRET substrate (QSY7-[…]-Europium-amide). This substrate contained an N-terminal QSY7 moiety that served as a quencher of the C-terminal Europium fluorophore (620 nm Em). In the absence of enzyme activity, 620 nm fluorescence was low in the assay and increased linearly over 3 hours in the presence of uninhibited BACE1 enzyme. Inhibition of BACE1 cleavage of the QSY7-APP^swe-Eu substrate by inhibitors was manifested as a suppression of 620 nm fluorescence.
# Reactions were initiated by addition of 10 μl of 600 nM QSY7-APP^swe-Eu substrate (200 nM final) to give a final reaction volume of 30 μl in a 384 well Nunc HTRF plate. The reactions were incubated at 30° C. for 1.5 hours. The 620 nm fluorescence was then read on a Rubystar HTRF plate reader (BMG Labtechnologies) using a 50 […]s delay followed by a 400 millisecond acquisition time window. Inhibitor IC50 values were derived from non-linear regression analysis of concentration response curves.
# [2] = target: purified human autoBACE-2 (Homo sapiens, UniProt Q9Y5Z0); test: BACE-2 Assay (BACE-HTRF assay); assay type: biochemical; settings: calculated from IC50 using the Cheng-Prusoff equation
# purified human autoBACE-2, sequence (Q9Y5Z0 63-518 limits assumed): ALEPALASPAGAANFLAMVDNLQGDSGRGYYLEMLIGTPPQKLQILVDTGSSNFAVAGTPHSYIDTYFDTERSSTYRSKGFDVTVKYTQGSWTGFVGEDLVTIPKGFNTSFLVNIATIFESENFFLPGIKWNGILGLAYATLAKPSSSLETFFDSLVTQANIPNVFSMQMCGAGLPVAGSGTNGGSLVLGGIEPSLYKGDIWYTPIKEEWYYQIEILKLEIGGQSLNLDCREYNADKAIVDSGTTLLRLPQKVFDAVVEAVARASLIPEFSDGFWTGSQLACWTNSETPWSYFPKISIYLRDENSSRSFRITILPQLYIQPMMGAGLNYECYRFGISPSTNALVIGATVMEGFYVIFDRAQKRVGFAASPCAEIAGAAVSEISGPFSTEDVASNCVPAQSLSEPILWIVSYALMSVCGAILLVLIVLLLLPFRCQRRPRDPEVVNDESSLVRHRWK
# Method: DMSO was present at 5% final concentration in the assay. Following laser excitation of sample wells at 320 nm, the fluorescence signal at 620 nm was collected for 400 ms following a 50 μs delay on a RUBYstar HTRF plate reader (BMG Labtechnologies). […] The Ki values were calculated from the IC50 using the Cheng-Prusoff equation.
# soluble human BACE1 catalytic domain, sequence (P56817 75-416): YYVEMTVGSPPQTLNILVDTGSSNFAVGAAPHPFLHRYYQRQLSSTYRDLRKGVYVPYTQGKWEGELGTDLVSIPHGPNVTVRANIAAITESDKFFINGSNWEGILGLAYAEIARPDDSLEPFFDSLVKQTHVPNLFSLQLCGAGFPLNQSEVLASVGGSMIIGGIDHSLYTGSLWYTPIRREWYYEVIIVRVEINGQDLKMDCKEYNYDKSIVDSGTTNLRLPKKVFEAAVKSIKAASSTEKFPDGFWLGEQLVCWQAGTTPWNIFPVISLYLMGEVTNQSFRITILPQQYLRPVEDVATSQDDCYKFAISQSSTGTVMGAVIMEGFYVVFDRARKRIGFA
pKi [1],pKi [2],Structure (SMILES)
7.09,–,CCc1nc(N2CC3C(c4ccccc4)(C2)NC(=N)N(C)S3(=O)=O)nc(OC)c1F (racemic) [Ex. 15]
7.49,8.49,CC(=O)N1CC2[C@](c3cc(NC(=O)c4ccc(F)cn4)ccc3F)(C1)NC(=N)N(C)S2(=O)=O (mixture of isomers) [Ex. 18]
8.15,8.30,COCc1cc(OC)nc(N2CC3[C@](c4ccccc4F)(C2)NC(=N)N(C)S3(=O)=O)c1 (some centres unmarked) [Ex. 8]
7.49,7.72,COc1nc(N2C[C@@H]3[C@](c4cc(F)c(F)cc4F)(C2)NC(=N)N(C)S3(=O)=O)nc(C)c1F (stereo in doubt) [Ex. 5]
7.52,–,COc1nc(N2CC3C(c4ccccc4)(C2)NC(=N)N(C)S3(=O)=O)nc(OC)c1F (racemic) [Ex. 13]
7.21,–,CCOCc1cc(OC)nc(N2CC3C(c4ccccc4)(C2)NC(=N)N(C)S3(=O)=O)c1 (racemic) [Ex. 11]
8.92,8.80,COc1nc(N2CC3[C@](c4cc(NC(=O)c5ccc(F)cn5)ccc4F)(C2)NC(=N)N(C)S3(=O)=O)nc(C)c1F (mixture of isomers) [Ex. 19]
8.15,8.49,COCc1cc(OC)nc(N2CC3[C@](c4cc(F)c(F)cc4F)(C2)NC(=N)N(C)S3(=O)=O)c1 (some centres unmarked) [Ex. 7]
5.81,–,Cc1cccc(N2CC3C(c4ccccc4)(C2)NC(=N)N(C)S3(=O)=O)c1 (racemic) [Ex. 17]
–,7.80,COc1nc(N2C[C@@H]3[C@](c4ccccc4)(C2)NC(=N)N(C)S3(=O)=O)nc(C)c1F [Ex. 1]

Structure (SMILES),pKi [1],pKi [2]
COc1nc(N2C[C@@H]3[C@](c4ccccc4F)(C2)NC(=N)N(C)S3(=O)=O)nc(C)c1F (stereo in doubt) [Ex. 4],–,8.27
COCc1cc(OC)nc(N2C[C@@H]3[C@](c4cc(F)ccc4F)(C2)NC(=N)N(C)S3(=O)=O)c1 (stereo in doubt) [Ex. 9],–,8.77
COc1nc(N2CC3[C@](c4ccc(F)cc4F)(C2)NC(=N)N(C)S3(=O)=O)nc(C)c1F (some centres unmarked) [Ex. 6],–,8.07
COc1nc(N2C[C@@H]3[C@](c4cc(F)ccc4F)(C2)NC(=N)N(C)S3(=O)=O)nc(C)c1F (stereo in doubt) [Ex. 3],–,7.85
COc1nc(N2C[C@@H]3[C@](c4ccc(F)cc4)(C2)NC(=N)N(C)S3(=O)=O)nc(C)c1F (stereo in doubt) [Ex. 2],–,7.85
